Experimental data published in patent US8580794B2 (AbbVie Inc., priority 2009, dated 2013).

The compounds below were run against GST-Bc1-2 (Homo sapiens, UniProt P10415) (assay: Time Resolved-Fluorescence Resonance Energy Transfer (TR-FRET) Bcl-2 binding assay with F-Bak peptide probe). Settings: GST-Bcl-2 1 nM, F-Bak probe 100 nM, Tb-anti-GST 1 nM; '<' = below limit of detection; read-out: TR-FRET Bcl-2 Binding Ki.
Chain of GST-Bc1-2 (P10415 whole entry): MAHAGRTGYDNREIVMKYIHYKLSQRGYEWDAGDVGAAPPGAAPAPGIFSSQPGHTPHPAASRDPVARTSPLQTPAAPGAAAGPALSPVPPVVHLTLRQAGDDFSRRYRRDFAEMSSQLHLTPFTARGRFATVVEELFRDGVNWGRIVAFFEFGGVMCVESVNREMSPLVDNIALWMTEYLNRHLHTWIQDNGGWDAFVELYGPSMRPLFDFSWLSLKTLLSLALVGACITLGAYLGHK

| SMILES | Ki [nM] |
| --- | --- |
| CC1(C)CCC(CN2CCN(c3ccc(C(=O)NS(=O)(=O)c4ccc(N[C@H]5CCCN(C6CCOCC6)C5)c([N+](=O)[O-])c4)c(Oc4cnc5[nH]ccc5c4)c3)CC2)=C(c2ccc(Cl)cc2)C1 [Example 105, 4-(4-{[2-(4-chlorophenyl)-4,4-dimethylcyclohex-1-en-1-yl]methyl}piperazin-1-yl)-N-[(3-nitro-4-{[(3S)-1-tetrahydro-2H-pyran-4-ylpiperidin-3-yl]amino}phenyl)sulfonyl]-2-(1H-pyrrolo[2,3-b]pyridin-5-yloxy)benzamide] | < 0.01 |
| CC1(C)CCC(CN2CCN(c3ccc(C(=O)NS(=O)(=O)c4cnc(NCC5CCOCC5)c(C#N)c4)c(Oc4cnc5[nH]ccc5c4)c3)CC2)=C(c2ccc(Cl)cc2)C1 [Example 106, 4-(4-{[2-(4-chlorophenyl)-4,4-dimethylcyclohex-1-en-1-yl]methyl}piperazin-1-yl)-N-({5-cyano-6-[(tetrahydro-2H-pyran-4-ylmethyl)amino]pyridin-3-yl}sulfonyl)-2-(1H-pyrrolo[2,3-b]pyridin-5-yloxy)benzamide] | 0.895 |
| CC1(C)CCC(CN2CCN(c3ccc(C(=O)NS(=O)(=O)c4ccc(NCC5(N)CCOCC5)c([N+](=O)[O-])c4)c(Oc4cnc5[nH]ccc5c4)c3)CC2)=C(c2ccc(Cl)cc2)C1 [Example 108, N-[(4-{[(4-aminotetrahydro-2H-pyran-4-yl)methyl]amino}-3-nitrophenyl)sulfonyl]-4-(4-{[2-(4-chlorophenyl)-4,4-dimethylcyclohex-1-en-1-yl]methyl}piperazin-1-yl)-2-(1H-pyrrolo[2,3-b]pyridin-5-yloxy)benzamide] | < 0.01 |
| CC1(C)CCC(CN2CCN(c3ccc(C(=O)NS(=O)(=O)c4cnc(N[C@H]5CC[C@H](N6CCOCC6)CC5)c(C#N)c4)c(Oc4cnc5[nH]ccc5c4)c3)CC2)=C(c2ccc(Cl)cc2)C1 [Example 109, Trans-4-(4-{[2-(4-chlorophenyl)-4,4-dimethylcyclohex-1-en-1-yl]methyl}piperazin-1-yl)-N-({5-cyano-6-[(4-morpholin-4-ylcyclohexyl)amino]pyridin-3-yl}sulfonyl)-2-(1H-pyrrolo[2,3-b]pyridin-5-yloxy)benzamide] | 0.127 |
| CC1(C)CCC(CN2CCN(c3ccc(C(=O)NS(=O)(=O)c4ccc(NCC5CCOCC5)c(C#N)c4)c(Oc4cnc5[nH]ccc5c4)c3)CC2)=C(c2ccc(Cl)cc2)C1 [Example 110, 4-(4-{[2-(4-chlorophenyl)-4,4-dimethylcyclohex-1-en-1-yl]methyl}piperazin-1-yl)-N-({3-cyano-4-[(tetrahydro-2H-pyran-4-ylmethyl)amino]phenyl}sulfonyl)-2-(1H-pyrrolo[2,3-b]pyridin-5-yloxy)benzamide] | 0.557 |
| CC1(C)CCC(CN2CCN(c3ccc(C(=O)NS(=O)(=O)c4ccc(N[C@H]5CC[C@@H](N6CCOCC6)C5)c([N+](=O)[O-])c4)c(Oc4cnc5[nH]ccc5c4)c3)CC2)=C(c2ccc(Cl)cc2)C1 [Example 111, 4-(4-{[2-(4-chlorophenyl)-4,4-dimethylcyclohex-1-en-1-yl]methyl}piperazin-1-yl)-N-[(4-{[(1S,3R)-3-morpholin-4-ylcyclopentyl]amino}-3-nitrophenyl)sulfonyl]-2-(1H-pyrrolo[2,3-b]pyridin-5-yloxy)benzamide] | < 0.01 |
| CC1(C)CCC(CN2CCN(c3ccc(C(=O)NS(=O)(=O)c4ccc(N[C@@H]5CC[C@H](N6CCOCC6)C5)c([N+](=O)[O-])c4)c(Oc4cnc5[nH]ccc5c4)c3)CC2)=C(c2ccc(Cl)cc2)C1 [Example 112, 4-(4-{[2-(4-chlorophenyl)-4,4-dimethylcyclohex-1-en-1-yl]methyl}piperazin-1-yl)-N-[(4-{[(1R,3S)-3-morpholin-4-ylcyclopentyl]amino}-3-nitrophenyl)sulfonyl]-2-(1H-pyrrolo[2,3-b]pyridin-5-yloxy)benzamide] | < 0.01 |
| CC1(C)CCC(CN2CCN(c3ccc(C(=O)NS(=O)(=O)c4ccc(NCC5CNCCO5)c([N+](=O)[O-])c4)c(Oc4cnc5[nH]ccc5c4)c3)CC2)=C(c2ccc(Cl)cc2)C1 (stereo not drawn) [Example 113, 4-(4-{[2-(4-chlorophenyl)-4,4-dimethylcyclohex-1-en-1-yl]methyl}piperazin-1-yl)-N-({4-[(morpholin-2-ylmethyl)amino]-3-nitrophenyl}sulfonyl)-2-(1H-pyrrolo[2,3-b]pyridin-5-yloxy)benzamide] | < 0.01 |
| CC1(C)CCC(CN2CCN(c3ccc(C(=O)NS(=O)(=O)c4ccc(NCC5CCOC5)c([N+](=O)[O-])c4)c(Oc4cnc5[nH]ccc5c4)c3)CC2)=C(c2ccc(Cl)cc2)C1 (stereo not drawn) [Example 114, 4-(4-{[2-(4-chlorophenyl)-4,4-dimethylcyclohex-1-en-1-yl]methyl}piperazin-1-yl)-N-({3-nitro-4-[(tetrahydrofuran-3-ylmethyl)amino]phenyl}sulfonyl)-2-(1H-pyrrolo[2,3-b]pyridin-5-yloxy)benzamide] | < 0.01 |
| CC1(C)CCC(CN2CCN(c3ccc(C(=O)NS(=O)(=O)c4ccc(NC5CN(C6CCOCC6)C5)c([N+](=O)[O-])c4)c(Oc4cnc5[nH]ccc5c4)c3)CC2)=C(c2ccc(Cl)cc2)C1 [Example 116, 4-(4-{[2-(4-chlorophenyl)-4,4-dimethylcyclohex-1-en-1-yl]methyl}piperazin-1-yl)-N-({3-nitro-4-[(1-tetrahydro-2H-pyran-4-ylazetidin-3-yl)amino]phenyl}sulfonyl)-2-(1H-pyrrolo[2,3-b]pyridin-5-yloxy)benzamide] | < 0.01 |
| CC1(C)CCC(CN2CCN(c3ccc(C(=O)NS(=O)(=O)c4ccc(NC5CN(C6CCOC6)C5)c([N+](=O)[O-])c4)c(Oc4cnc5[nH]ccc5c4)c3)CC2)=C(c2ccc(Cl)cc2)C1 (stereo not drawn) [Example 117, 4-(4-{[2-(4-chlorophenyl)-4,4-dimethylcyclohex-1-en-1-yl]methyl}piperazin-1-yl)-N-({3-nitro-4-[(1-tetrahydrofuran-3-ylazetidin-3-yl)amino]phenyl}sulfonyl)-2-(1H-pyrrolo[2,3-b]pyridin-5-yloxy)benzamide] | < 0.01 |
| CC1(C)CCC(CN2CCN(c3ccc(C(=O)NS(=O)(=O)c4ccc(NC[C@H]5CCN(C6CCOCC6)C5)c([N+](=O)[O-])c4)c(Oc4cnc5[nH]ccc5c4)c3)CC2)=C(c2ccc(Cl)cc2)C1 [Example 118, 4-(4-{[2-(4-chlorophenyl)-4,4-dimethylcyclohex-1-en-1-yl]methyl}piperazin-1-yl)-N-{[3-nitro-4-({[(3R)-1-tetrahydro-2H-pyran-4-ylpyrrolidin-3-yl]methyl}amino)phenyl]sulfonyl}-2-(1H-pyrrolo[2,3-b]pyridin-5-yloxy)benzamide] | < 0.01 |
| CC1(C)CCC(c2ccc(Cl)cc2)=C(CN2CCN(c3ccc(C(=O)NS(=O)(=O)c4ccc(OCC5(F)CCOCC5)c([N+](=O)[O-])c4)c(Oc4cnc5[nH]ccc5c4)c3)CC2)C1 [Example 119, 4-(4-{[2-(4-chlorophenyl)-5,5-dimethylcyclohex-1-en-1-yl]methyl}piperazin-1-yl)-N-({4-[(4-fluorotetrahydro-2H-pyran-4-yl)methoxy]-3-nitrophenyl}sulfonyl)-2-(1H-pyrrolo[2,3-b]pyridin-5-yloxy)benzamide] | < 0.01 |
| CO[C@H]1CC[C@@H](COc2ccc(S(=O)(=O)NC(=O)c3ccc(N4CCN(CC5=C(c6ccc(Cl)cc6)CC(C)(C)CC5)CC4)cc3Oc3cnc4[nH]ccc4c3)cc2[N+](=O)[O-])CC1 [Example 121, 2-(1H-pyrrolo[2,3-b]pyridin-5-yloxy)-4-(4-((2-(4-chlorophenyl)-4,4-dimethylcyclohex-1-enyl)methyl)piperazin-1-yl)-N-(4-((cis-4-methoxycyclohexyl)methoxy)-3-nitrophenylsulfonyl)benzamide] | < 0.01 |
| CC1(C)CCC(CN2CCN(c3ccc(C(=O)NS(=O)(=O)c4ccc(N[C@H]5CC[C@@H](NC6CC6)CC5)c([N+](=O)[O-])c4)c(Oc4cnc5[nH]ccc5c4)c3)CC2)=C(c2ccc(Cl)cc2)C1 [Example 122, Cis-4-(4-{[2-(4-chlorophenyl)-4,4-dimethylcyclohex-1-en-1-yl]methyl}piperazin-1-yl)-N-[(4-{[4-(cyclopropylamino)cyclohexyl]amino}-3-nitrophenyl)sulfonyl]-2-(1H-pyrrolo[2,3-b]pyridin-5-yloxy)benzamide] | < 0.01 |
| CC1(C)CCC(CN2CCN(c3ccc(C(=O)NS(=O)(=O)c4ccc(N[C@H]5CC[C@H](NC6CCOCC6)CC5)c([N+](=O)[O-])c4)c(Oc4cnc5[nH]ccc5c4)c3)CC2)=C(c2ccc(Cl)cc2)C1 [Example 123, Trans-4-(4-{[2-(4-chlorophenyl)-4,4-dimethylcyclohex-1-en-1-yl]methyl}piperazin-1-yl)-N-[(3-nitro-4-{[4-(tetrahydro-2H-pyran-4-ylamino)cyclohexyl]amino}phenyl)sulfonyl]-2-(1H-pyrrolo[2,3-b]pyridin-5-yloxy)benzamide] | < 0.01 |
| CC1(C)CCC(CN2CCN(c3ccc(C(=O)NS(=O)(=O)c4cnc(O[C@H]5CC[C@H](N6CCOCC6)CC5)c(Br)c4)c(Oc4cnc5[nH]ccc5c4)c3)CC2)=C(c2ccc(Cl)cc2)C1 [Example 124, Trans-N-({5-bromo-6-[(4-morpholin-4-ylcyclohexyl)oxy]pyridin-3-yl}sulfonyl)-4-(4-{[2-(4-chlorophenyl)-4,4-dimethylcyclohex-1-en-1-yl]methyl}piperazin-1-yl)-2-(1H-pyrrolo[2,3-b]pyridin-5-yloxy)benzamide] | < 0.01 |
| CO[C@H]1CC[C@H](COc2ccc(S(=O)(=O)NC(=O)c3ccc(N4CCN(CC5=C(c6ccc(Cl)cc6)CC(C)(C)CC5)CC4)cc3Oc3cnc4[nH]ccc4c3)cc2[N+](=O)[O-])CC1 [Example 125, Trans-4-(4-{[2-(4-chlorophenyl)-4,4-dimethylcyclohex-1-en-1-yl]methyl}piperazin-1-yl)-N-({4-[(4-methoxycyclohexyl)methoxy]-3-nitrophenyl}sulfonyl)-2-(1H-pyrrolo[2,3-b]pyridin-5-yloxy)benzamide] | < 0.01 |
